Measured values: ChEMBL document CHEMBL1201862, “PubChem BioAssay data set” (2004)
Activity calls are given as the source filed them.

How the values were obtained:
[1] = biological target: Nuclear receptor subfamily 5 group A member 2 (Homo sapiens, UniProt O00482); type: functional, cell-based;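 also: HEK293T cells transfected with LRH-1 and a StAR promoter luciferase reporter; potency for inhibitors that lower LRH-1 driven reporter light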
[2] = StAR promoter reporter inhibition counter-screen, dose response, counter-screen for LRH-1 inverse agonist project, cell-based, luminescence, luciferase reporter (AID 651969); type: functional
Steroidogenic factor 1 = Steroidogenic factor 1 (Homo sapiens, UniProt Q13285); assay: Counterscreen for inverse agonists of the liver receptor homolog-1 (LRH-1; NR5A2): Luminescence-based cell-based high throughput dose response assay to identify inverse agonists of the Steroidogenic Factor 1 Nuclear Receptor (SF1; NR5A1).; type: functional
[3] = biological target: T1, Methionyl-tRNA synthetase, putative (Trypanosoma brucei brucei, UniProt Q38C91); type: functional, Trypanosoma brucei brucei strain 927/4 GUTat10.1;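 also: Read-out by fluorescence polarization, run as a confirmatory high-throughput counterscreen; potency of MetRS inhibitors measured by reduced AMP formation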
T1 sequence (Q38C91 whole entry): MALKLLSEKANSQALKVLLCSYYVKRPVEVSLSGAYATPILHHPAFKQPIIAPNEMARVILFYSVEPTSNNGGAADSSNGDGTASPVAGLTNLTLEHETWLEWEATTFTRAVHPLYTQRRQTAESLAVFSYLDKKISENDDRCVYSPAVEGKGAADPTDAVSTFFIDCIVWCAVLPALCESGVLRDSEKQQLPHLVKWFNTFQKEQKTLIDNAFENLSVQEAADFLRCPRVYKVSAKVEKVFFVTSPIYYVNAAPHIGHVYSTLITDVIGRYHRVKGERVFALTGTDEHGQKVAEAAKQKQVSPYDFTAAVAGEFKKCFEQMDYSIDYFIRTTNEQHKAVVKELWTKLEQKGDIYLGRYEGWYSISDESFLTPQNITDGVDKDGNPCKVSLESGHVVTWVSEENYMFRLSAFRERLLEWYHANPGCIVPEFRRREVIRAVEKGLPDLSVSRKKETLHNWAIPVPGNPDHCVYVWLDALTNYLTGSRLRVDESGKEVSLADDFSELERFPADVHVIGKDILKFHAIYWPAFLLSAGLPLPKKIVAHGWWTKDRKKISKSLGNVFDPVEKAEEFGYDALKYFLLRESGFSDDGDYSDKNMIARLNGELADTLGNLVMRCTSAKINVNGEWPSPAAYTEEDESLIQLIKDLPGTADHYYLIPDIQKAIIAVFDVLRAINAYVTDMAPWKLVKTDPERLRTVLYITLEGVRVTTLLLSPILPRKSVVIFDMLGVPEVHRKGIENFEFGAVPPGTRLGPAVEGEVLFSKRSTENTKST

[4] = Counterscreen for inhibitors of Trypanosoma brucei methionyl tRNA synthetase (MetRS): Luminescence-based cell-based high throughput dose response assay to identify compounds that are cytotoxic to Jurkat human T lymphocyte cells.; type: functional
[5] = biological target: T2, Corticotropin-releasing factor receptor 2/Corticotropin-releasing factor-binding protein (Homo sapiens, UniProt P24387+Q13324); assay: Dose Response confirmation of uHTS hits for small molecule antagonists of the CRF-binding protein and CRF-R2 receptor complex.; type: functional; details: read-out: IC50_Mean
T2 sequence (Q13324 whole entry): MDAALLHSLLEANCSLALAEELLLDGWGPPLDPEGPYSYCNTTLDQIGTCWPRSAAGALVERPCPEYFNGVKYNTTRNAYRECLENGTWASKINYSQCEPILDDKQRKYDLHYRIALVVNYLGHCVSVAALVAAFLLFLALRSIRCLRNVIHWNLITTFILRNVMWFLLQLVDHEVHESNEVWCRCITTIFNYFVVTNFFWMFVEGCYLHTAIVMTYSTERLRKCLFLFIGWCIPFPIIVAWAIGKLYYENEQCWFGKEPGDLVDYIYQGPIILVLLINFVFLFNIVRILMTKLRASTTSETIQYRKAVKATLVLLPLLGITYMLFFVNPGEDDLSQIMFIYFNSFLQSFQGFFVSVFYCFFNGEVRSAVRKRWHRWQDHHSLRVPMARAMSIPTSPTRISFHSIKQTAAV
T2 sequence (P24387 whole entry): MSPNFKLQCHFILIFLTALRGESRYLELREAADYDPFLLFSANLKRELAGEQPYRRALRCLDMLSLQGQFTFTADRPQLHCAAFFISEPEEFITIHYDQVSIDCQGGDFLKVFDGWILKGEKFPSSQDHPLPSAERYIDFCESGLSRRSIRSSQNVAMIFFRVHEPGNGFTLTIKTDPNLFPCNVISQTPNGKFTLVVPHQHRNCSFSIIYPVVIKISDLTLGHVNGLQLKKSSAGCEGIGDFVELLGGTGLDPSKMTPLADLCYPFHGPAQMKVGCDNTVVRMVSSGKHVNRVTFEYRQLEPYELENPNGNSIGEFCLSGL

[6] = CRF-BP/CRF-R2 complex antagonists, dose response, cell-based, uHTS hits, 384-well (AID 651639); type: functional, Homo sapiens; details: read-out: IC50_Mean
[7] = biological target: T2, Corticotropin-releasing factor receptor 2/Corticotropin-releasing factor-binding protein; assay: activators of CRF receptor 2 with binding protein – uHTS hits, confirmation (AID 602473); type: functional; details: read-out: EC50_Mean
[8] = biological target: T3, Sentrin-specific protease 8 (Homo sapiens, UniProt Q96LD8); assay: SENP8 protease inhibitors, SAR follow-up, biochemical, luminescence (AID 504501); type: functional
T3 sequence (Q96LD8 whole entry): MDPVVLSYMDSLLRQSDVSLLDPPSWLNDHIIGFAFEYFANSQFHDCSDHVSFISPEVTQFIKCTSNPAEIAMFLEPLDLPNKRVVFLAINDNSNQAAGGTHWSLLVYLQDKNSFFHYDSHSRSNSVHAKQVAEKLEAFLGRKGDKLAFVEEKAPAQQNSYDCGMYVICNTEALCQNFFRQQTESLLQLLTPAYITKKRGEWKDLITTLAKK

Caspase-3 = biological target: T4, Caspase-3 (Homo sapiens, UniProt P42574); assay: SAR Analysis of small molecule inhibitors of Sentrin-specific proteases (SENPs) using a Caspase-3 Selectivity assay. [Related pubchem assays (depositor defined):AID2540, AID2599, AID434973, AID489001]; type: functional
T4 sequence (P42574 whole entry): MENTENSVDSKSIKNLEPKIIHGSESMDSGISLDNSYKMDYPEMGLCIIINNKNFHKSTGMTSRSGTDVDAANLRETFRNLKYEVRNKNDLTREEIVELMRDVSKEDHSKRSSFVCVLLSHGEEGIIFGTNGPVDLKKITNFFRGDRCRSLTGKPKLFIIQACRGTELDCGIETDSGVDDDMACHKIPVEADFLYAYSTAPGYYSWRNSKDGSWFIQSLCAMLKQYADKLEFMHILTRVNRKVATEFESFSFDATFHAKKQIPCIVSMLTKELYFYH

[9] = biological target: T5, Sentrin-specific protease 6 (Homo sapiens, UniProt Q9GZR1); assay: SAR Analysis of small molecule inhibitors of Sentrin-specific protease 6 (SENP6) using a Luminescent assay. [Related pubchem assays (depositor defined):AID2582, AID2599]; type: functional
T5 sequence (Q9GZR1 whole entry): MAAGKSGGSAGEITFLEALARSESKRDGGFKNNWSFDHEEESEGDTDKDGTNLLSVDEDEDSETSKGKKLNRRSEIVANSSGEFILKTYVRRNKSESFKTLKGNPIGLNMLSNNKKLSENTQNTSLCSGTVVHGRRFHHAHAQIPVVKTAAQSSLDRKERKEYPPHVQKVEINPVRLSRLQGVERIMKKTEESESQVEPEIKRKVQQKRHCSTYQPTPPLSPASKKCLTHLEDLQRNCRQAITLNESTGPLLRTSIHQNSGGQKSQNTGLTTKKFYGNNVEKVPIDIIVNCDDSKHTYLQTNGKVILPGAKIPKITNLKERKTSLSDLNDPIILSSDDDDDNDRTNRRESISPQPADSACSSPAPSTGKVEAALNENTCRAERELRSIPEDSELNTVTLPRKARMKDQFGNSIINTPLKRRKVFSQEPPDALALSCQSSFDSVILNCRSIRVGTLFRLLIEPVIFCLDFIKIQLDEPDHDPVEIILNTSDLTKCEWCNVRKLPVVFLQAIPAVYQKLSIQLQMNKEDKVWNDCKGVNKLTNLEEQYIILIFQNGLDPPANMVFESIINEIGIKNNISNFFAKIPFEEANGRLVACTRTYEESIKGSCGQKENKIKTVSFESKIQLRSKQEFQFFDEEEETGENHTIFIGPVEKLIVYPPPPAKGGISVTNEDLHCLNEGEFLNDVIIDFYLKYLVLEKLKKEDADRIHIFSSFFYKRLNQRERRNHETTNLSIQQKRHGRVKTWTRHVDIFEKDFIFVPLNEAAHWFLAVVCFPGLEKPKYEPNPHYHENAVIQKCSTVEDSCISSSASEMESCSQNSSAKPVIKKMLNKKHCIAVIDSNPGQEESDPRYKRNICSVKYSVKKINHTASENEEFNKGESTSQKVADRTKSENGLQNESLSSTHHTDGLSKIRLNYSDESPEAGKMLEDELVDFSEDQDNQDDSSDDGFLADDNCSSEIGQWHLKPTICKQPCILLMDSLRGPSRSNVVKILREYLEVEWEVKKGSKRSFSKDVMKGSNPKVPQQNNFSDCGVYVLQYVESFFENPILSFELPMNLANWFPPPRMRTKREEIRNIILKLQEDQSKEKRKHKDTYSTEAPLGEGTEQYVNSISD

Nonstructural protein 1 = Nonstructural protein 1 (Influenza A virus, UniProt Q194T2); type: functional, Influenza A virus (A/California/07/2009(H1N1))
[10] = AlphaScreen signal interference compounds, dose response, artefact control for ARNT-TACC3 interaction inhibitor project, biochemical, luminescence, cherry-pick (AID 651705); type: functional;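 also: AlphaScreen bead proximity signal that flags compounds interfering with the detection technology; potency reflects signal decrease which marks the compound as an assay artifact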
[11] = biological target: Adenosylmethionine-8-amino-7-oxononanoate aminotransferase (Mycobacterium tuberculosis, UniProt P9WQ81); assay: Mycobacterium tuberculosis BioA enzyme inhibitor Measured in Biochemical System Using Plate Reader - 2163-02_Inhibitor_Dose_CherryPick_Activity.; type: functional, Mycobacterium tuberculosis UT205
Interleukin-8 [12] = biological target: T6, Interleukin-8 (Homo sapiens, UniProt P10145); assay: Dose Response confirmation of uHTS small molecule hits for cystic fibrosis induced NFkb Inhibitors in a PAF-induced IL8 counterscreen.; type: functional; details: read-out: IC50_Mean
T6 sequence (P10145 whole entry): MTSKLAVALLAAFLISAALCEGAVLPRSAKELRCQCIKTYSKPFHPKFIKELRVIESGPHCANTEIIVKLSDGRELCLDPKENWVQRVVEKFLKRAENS

Interleukin-8 [13] = biological target: T6, Interleukin-8; assay: Dose Response confirmation of uHTS small molecule hits for cystic fibrosis induced NFkb Inhibitors in a TNFa-induced IL8 counterscreen.; type: functional; details: read-out: IC50_Mean
HEK293 = assay: inhibitors of LMP1-driven NF-kB reporter, dose response, cell-based, HEK293, luciferase, cherry-pick (AID 588343); type: functional; details: Homo sapiens
[14] = A Cell Based Secondary Assay To Explore Cytotoxicity of Compounds that Sensitize Mycobacterium Tuberculosis to Beta-Lactam Antibiotics.; type: functional
[15] = microbe, parasite or virus in culture; type: functional; details: Mycobacterium tuberculosis
[16] = biological target: T7, Microphthalmia-associated transcription factor (Homo sapiens, UniProt O75030); assay: TRPM1 promoter luciferase signal decrease, dose response, MITF inhibitor project, cell-based, SK-MEL-5, cherry-picked, set 3 (AID 493073); type: functional
T7 sequence (O75030 whole entry): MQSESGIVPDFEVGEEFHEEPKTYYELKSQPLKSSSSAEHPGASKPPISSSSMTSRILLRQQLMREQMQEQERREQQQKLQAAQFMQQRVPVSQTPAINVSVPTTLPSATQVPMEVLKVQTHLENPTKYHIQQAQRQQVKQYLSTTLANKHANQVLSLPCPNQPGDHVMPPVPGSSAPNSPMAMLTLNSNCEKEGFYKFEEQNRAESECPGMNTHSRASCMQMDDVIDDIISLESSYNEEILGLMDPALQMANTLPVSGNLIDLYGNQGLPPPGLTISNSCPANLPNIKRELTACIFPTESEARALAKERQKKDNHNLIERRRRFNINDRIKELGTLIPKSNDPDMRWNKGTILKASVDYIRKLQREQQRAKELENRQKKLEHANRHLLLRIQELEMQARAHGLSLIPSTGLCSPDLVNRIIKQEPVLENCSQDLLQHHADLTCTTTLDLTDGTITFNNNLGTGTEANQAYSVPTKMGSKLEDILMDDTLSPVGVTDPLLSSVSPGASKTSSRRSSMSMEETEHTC

Nuclear receptor subfamily 5 group A member 2, sequence (O00482 whole entry): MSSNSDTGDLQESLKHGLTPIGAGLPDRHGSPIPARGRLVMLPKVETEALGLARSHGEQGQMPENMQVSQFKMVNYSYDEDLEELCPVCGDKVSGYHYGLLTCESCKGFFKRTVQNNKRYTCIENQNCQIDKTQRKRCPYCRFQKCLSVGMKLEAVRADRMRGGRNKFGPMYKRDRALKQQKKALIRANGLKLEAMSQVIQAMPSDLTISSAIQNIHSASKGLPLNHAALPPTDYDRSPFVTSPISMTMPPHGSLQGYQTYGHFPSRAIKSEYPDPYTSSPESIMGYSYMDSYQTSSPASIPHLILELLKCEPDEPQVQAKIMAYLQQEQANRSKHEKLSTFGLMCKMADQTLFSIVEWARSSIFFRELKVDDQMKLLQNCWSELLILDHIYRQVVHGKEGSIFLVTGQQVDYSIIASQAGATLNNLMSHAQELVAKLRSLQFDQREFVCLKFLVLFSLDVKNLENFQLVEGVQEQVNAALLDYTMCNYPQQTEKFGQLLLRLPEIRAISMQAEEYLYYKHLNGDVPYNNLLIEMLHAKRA
Steroidogenic factor 1, sequence (Q13285 whole entry): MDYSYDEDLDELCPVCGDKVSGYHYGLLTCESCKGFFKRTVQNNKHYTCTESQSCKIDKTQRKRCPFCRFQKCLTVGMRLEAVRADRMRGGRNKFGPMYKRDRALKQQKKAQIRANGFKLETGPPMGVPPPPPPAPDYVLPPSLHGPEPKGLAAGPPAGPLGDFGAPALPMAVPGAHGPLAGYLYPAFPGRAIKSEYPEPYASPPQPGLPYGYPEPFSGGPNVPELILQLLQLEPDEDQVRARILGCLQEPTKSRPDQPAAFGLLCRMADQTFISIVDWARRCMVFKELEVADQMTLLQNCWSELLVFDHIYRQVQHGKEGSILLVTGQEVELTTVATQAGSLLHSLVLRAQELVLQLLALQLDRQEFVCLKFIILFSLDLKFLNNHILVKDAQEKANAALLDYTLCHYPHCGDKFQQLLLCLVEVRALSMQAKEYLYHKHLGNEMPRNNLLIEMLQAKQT
Adenosylmethionine-8-amino-7-oxononanoate aminotransferase, sequence (P9WQ81 whole entry): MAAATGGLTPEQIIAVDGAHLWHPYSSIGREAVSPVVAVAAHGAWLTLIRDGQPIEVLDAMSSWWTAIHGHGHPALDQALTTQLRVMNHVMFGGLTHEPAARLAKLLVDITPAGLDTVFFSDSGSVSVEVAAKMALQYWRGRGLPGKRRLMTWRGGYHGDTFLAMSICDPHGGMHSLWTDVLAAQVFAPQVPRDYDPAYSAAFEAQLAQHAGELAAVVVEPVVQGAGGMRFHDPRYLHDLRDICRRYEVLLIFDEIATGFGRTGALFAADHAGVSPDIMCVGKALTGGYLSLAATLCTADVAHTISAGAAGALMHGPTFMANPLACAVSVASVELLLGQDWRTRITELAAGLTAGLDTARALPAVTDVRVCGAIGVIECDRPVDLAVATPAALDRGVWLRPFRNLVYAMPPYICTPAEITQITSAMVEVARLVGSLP
Nonstructural protein 1, sequence (Q194T2 whole entry): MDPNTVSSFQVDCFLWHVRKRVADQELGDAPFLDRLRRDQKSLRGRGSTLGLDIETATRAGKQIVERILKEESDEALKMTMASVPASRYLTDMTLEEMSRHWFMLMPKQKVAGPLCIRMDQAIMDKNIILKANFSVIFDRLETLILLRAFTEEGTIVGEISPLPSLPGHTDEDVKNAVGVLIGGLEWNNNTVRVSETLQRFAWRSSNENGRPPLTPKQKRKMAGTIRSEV

COC(=O)c1ccc(N2CCCCC2)c(NC(=O)c2ccco2)c1
IC50 [1]: 6.04 µM (active) | IC50 [2]: 18.7 µM (inactive) | IC50 (Steroidogenic factor 1): 3.89 µM (active)

Cc1cc(Br)cc(Br)c1OCC(=O)NNC(=O)Nc1ccccc1
IC50 [3]: 119 µM (inactive) | IC50 [4]: 83.3 µM (inactive)

CC1=NN(C(=O)c2ccc(Br)cc2)C(O)(C(F)(F)OC(F)(F)F)C1 (stereo not drawn)
IC50 [5]: 4.84 µM (active) | IC50 [6]: > 20 µM (inactive) | EC50 [7]: 46 µM (active)

COc1ccc(C(=O)Nc2ccc3ccccc3c2)cc1OC
IC50 [8]: > 99 µM (inactive) | IC50 (Caspase-3): 14.9 µM (active) | IC50 [9]: > 99 µM (inactive)

Cc1ccc([C@H]2C(C(=O)O)=CC[C@@H](c3ccc(Cl)cc3)N2S(=O)(=O)c2ccc(C)cc2)cc1
IC50 [5]: 19.8 µM (active) | IC50 [6]: > 20 µM (inactive) | EC50 [7]: 25.4 µM (active)

O=C(CSc1ccc2nnc(-c3ccccn3)n2n1)Nc1nccs1
IC50 (Nonstructural protein 1): 43.5 µM (active) | AC50 [10]: 76.4 µM (active)

Fc1ccc2[nH]c3c(NCCN4CCOCC4)ncnc3c2c1
AC50 [11]: 14.9 µM (active)

O=C(Nc1ccc2snnc2c1)N1CCOCC1
AC50 [11]: 8.02 µM (active)

c1nc(NCc2ccc3c(c2)OCO3)c2cc(-c3ccoc3)ccc2n1
IC50 (Interleukin-8 [12]): 1.66 µM (active) | IC50 (Interleukin-8 [13]): > 79 µM (inactive) | AC50 (HEK293): 2.17 µM (active)

O=C(Nc1nnc(-c2ccco2)o1)c1ccc(S(=O)(=O)N2CCOCC2)cc1
AC50 [10]: 117 µM (active) | CC50 [14]: > 40 µM (active)

O=C(NC1CCCC(C(F)(F)F)C1)c1ccc([N+](=O)[O-])o1 (stereo not drawn)
IC50 [1]: 23.5 µM (inactive) | CC50 [15]: 8.8 µM (active) | IC50 [2]: 35.9 µM (inactive) | IC50 (Steroidogenic factor 1): 0.772 µM (active) | AC50 [16]: 11.2 µM (active)
